Molecular target: T1, human PAH with the R408W mutation (A375 R408W cells) (Homo sapiens, UniProt P00439, R408W)
T1 construct: expressed in transfected cells
T1 sequence (P00439 1-452 R408W): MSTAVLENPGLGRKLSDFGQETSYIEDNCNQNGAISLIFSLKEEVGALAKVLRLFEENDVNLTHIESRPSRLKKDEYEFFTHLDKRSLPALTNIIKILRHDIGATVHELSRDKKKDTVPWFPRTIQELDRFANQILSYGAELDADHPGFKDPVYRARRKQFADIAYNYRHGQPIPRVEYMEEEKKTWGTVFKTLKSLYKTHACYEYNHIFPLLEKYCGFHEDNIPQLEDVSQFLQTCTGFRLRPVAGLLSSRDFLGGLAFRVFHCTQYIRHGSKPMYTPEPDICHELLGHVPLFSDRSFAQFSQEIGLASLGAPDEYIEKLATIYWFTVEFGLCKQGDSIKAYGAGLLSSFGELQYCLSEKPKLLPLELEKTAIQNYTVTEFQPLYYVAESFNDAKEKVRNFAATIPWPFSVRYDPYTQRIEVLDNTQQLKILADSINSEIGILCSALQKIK
Assay: Cell Based Phenylalanine Flux Assay
Conditions: A375 R408W cells; 24 hrs with compound, then 20 μM sepiapterin and 800 μM 13C9,15N-Phenylalanine for 4 hours; 13C-Tyrosine by LC-MS; average where tested multiple times
Procedure: Cells expressing R408W PAH were made by transducing A375 cells with lentivirus encoding human PAH with the R408W mutation in pLVX-Puro, then selecting with puromycin until stable cell lines were generated. A375 R408W cells were seeded into 96 well plates in DMEM+10% FBS at a density of 40,000 cells/well one hour prior to compound addition. Compounds were resuspended in DMSO, and 2-fold serial dilutions were performed to generate a 10-point dose curve. Compounds were added to plated cells in a total volume of 100 μl, and a final DMSO concentration of 0.5%. Each compound was tested in duplicate. Following compound addition, cells were placed in a 5% CO2, 37° C. tissue culture incubator for 24 hrs. After the incubation period, 20 μM sepiapterin and 800 μM 13C9,15N-Phenylalanine were added. After 4 hours, cell media was removed. An aliquot of 10 μl of cell media was combined with 200 μl of extraction buffer (80% acetonitrile/20% H2O) for each well. Determination of ^13C-Tyrosine concentration was assessed by liquid chromatography mass spectrometry.
Specific compounds disclosed herein were tested in the foregoing assay and they were determined to have an AC50 according to the following scores: (A) less than or equal to 0.500 μM, (B) greater than 0.500 and less than […], (C) greater than or equal to 1.000 and less than 5.000 μM, (D) greater than or equal to 5.000 μM, (E) no fit, and (NT) not tested, as shown below. Where a compound was tested multiple times, the average value of the tests is reported.

| AC50 [nM] | SMILES |
| --- | --- |
| 1000 to 5000 | Cc1cccc2nc([C@H]3c4nc[nH]c4CCN3C(=O)c3nnc(-c4ccn(C(F)F)n4)o3)oc12 [Example 859, (R)-(5-(1-(difluoromethyl)-1H-pyrazol-3-yl)-1,3,4-oxadiazol-2-yl)(4-(7-methylbenzo[d]oxazol-2-yl)-6,7-dihydro-1H-imidazo[4,5-c]pyridin-5(4H)-yl)methanone] |
| ≥ 5000 | FC(F)(F)c1nnc(N2Cc3[nH]cnc3[C@@H]2c2nc3ccccc3o2)o1 [Example 945, (R)-2-(5-(5-(trifluoromethyl)-1,3,4-oxadiazol-2-yl)-1,4,5,6-tetrahydropyrrolo[3,4-d]imidazol-4-yl)benzo[d]oxazole] |
| ≥ 5000 | O=C(c1cnn2cc(N3CCC(O)CC3)ccc12)N1CCc2[nH]cnc2[C@@H]1c1nc2cc(F)cc(F)c2o1 [Example 700, (R)-(4-(5,7-difluorobenzo[d]oxazol-2-yl)-6,7-dihydro-1H-imidazo[4,5-c]pyridin-5(4H)-yl)(6-(4-hydroxypiperidin-1-yl)pyrazolo[1,5-a]pyridin-3-yl)methanone] |
| ≤ 500 | Cc1ccc2oc([C@@H]3c4nc[nH]c4CCN3C(=O)c3oc(-c4ccn(C)n4)nc3C(F)F)nc2c1 [Example 755, (S)-(4-(difluoromethyl)-2-(1-methyl-1H-pyrazol-3-yl)oxazol-5-yl)(4-(5-methylbenzo[d]oxazol-2-yl)-6,7-dihydro-1H-imidazo[4,5-c]pyridin-5(4H)-yl)methanone] |
| 1000 to 5000 | Cn1cnc(-c2nc(C(F)F)c(C(=O)N3CCc4[nH]cnc4[C@@H]3c3nc4cccc(F)c4o3)o2)c1 [Example 891, (R)-(4-(difluoromethyl)-2-(1-methyl-1H-imidazol-4-yl)oxazol-5-yl)(4-(7-fluorobenzo[d]oxazol-2-yl)-1,4,6,7-tetrahydro-5H-imidazo[4,5-c]pyridin-5-yl)methanone] |
| 1000 to 5000 | COc1cccc2nc([C@H]3c4nc[nH]c4CCN3C(=O)c3cc(C)nn3C)oc12 [Example 822, (R)-(1,3-dimethyl-1H-pyrazol-5-yl)(4-(7-methoxybenzo[d]oxazol-2-yl)-6,7-dihydro-1H-imidazo[4,5-c]pyridin-5(4H)-yl)methanone] |
| 1000 to 5000 | Cn1cncc1-c1nc(C(F)F)c(C(=O)N2CCc3[nH]cnc3[C@@H]2c2nc3cc(F)ccc3o2)o1 [Example 688, (R)-(4-(difluoromethyl)-2-(1-methyl-1H-imidazol-5-yl)oxazol-5-yl)(4-(5-fluorobenzo[d]oxazol-2-yl)-6,7-dihydro-1H-imidazo[4,5-c]pyridin-5(4H)-yl)methanone] |
| ≤ 500 | Cn1nc(C(F)F)cc1C(=O)N1CCc2[nH]cnc2[C@H]1c1nc2cccc(F)c2o1 [Example 733, (S)-(3-(difluoromethyl)-1-methyl-1H-pyrazol-5-yl)(4-(7-fluorobenzo[d]oxazol-2-yl)-6,7-dihydro-1H-imidazo[4,5-c]pyridin-5(4H)-yl)methanone] |
| 500 to 1000 | O=C(c1ocnc1C(F)(F)F)N1CCc2[nH]cnc2[C@@H]1c1nc2c(F)ccc(F)c2o1 [Example 796, (R)-(4-(4,7-difluorobenzo[d]oxazol-2-yl)-6,7-dihydro-1H-imidazo[4,5-c]pyridin-5(4H)-yl)(4-(trifluoromethyl)oxazol-5-yl)methanone] |

The next lines start with the compound.

| SMILES | AC50 [nM] |
| --- | --- |
| Cn1cc(-c2nnc(C(=O)N3CCc4[nH]cnc4[C@H]3c3nc4c(F)c(F)ccc4o3)o2)cn1 [Example 645, (S)-(4-(4,5-difluorobenzo[d]oxazol-2-yl)-6,7-dihydro-1H-imidazo[4,5-c]pyridin-5(4H)-yl)(5-(1-methyl-1H-pyrazol-4-yl)-1,3,4-oxadiazol-2-yl)methanone] | 1000 to 5000 |
| O=C(c1ocnc1C(F)(F)F)N1CCc2[nH]cnc2[C@@H]1c1nc2cc(F)ccc2o1 [Example 24] | 1000 to 5000 |
| Cn1ccc(-c2nnc(C(=O)N3CCc4[nH]cnc4[C@@H]3c3nc4c(F)cccc4o3)o2)n1 [Example 380, (R)-(4-(4-fluorobenzo[d]oxazol-2-yl)-1,4,6,7-tetrahydro-5H-imidazo[4,5-c]pyridin-5-yl)(5-(1-methyl-1H-pyrazol-3-yl)-1,3,4-oxadiazol-2-yl)methanone] | 500 to 1000 |
| CC(C)(O)c1nc(C(F)F)c(C(=O)N2CCc3[nH]cnc3[C@H]2c2nc3cc(OC(F)(F)F)ccc3o2)o1 [Example 351, (S)-(4-(difluoromethyl)-2-(2-hydroxypropan-2-yl)oxazol-5-yl)(4-(5-(trifluoromethoxy)benzo[d]oxazol-2-yl)-6,7-dihydro-1H-imidazo[4,5-c]pyridin-5(4H)-yl)methanone] | ≤ 500 |
| O=C(c1ocnc1C(F)(F)F)N1CCc2[nH]cnc2[C@@H]1c1nc2ccc(F)cc2o1 [Example 162, (R)-(4-(6-fluorobenzo[d]oxazol-2-yl)-6,7-dihydro-1H-imidazo[4,5-c]pyridin-5(4H)-yl)(4-(trifluoromethyl)oxazol-5-yl)methanone] | 1000 to 5000 |
| O=C(c1nnc(-c2cnccn2)o1)N1CCc2[nH]cnc2[C@H]1c1nc2cc(F)ccc2o1 [Example 628, (S)-(4-(5-fluorobenzo[d]oxazol-2-yl)-6,7-dihydro-1H-imidazo[4,5-c]pyridin-5(4H)-yl)(5-(pyrazin-2-yl)-1,3,4-oxadiazol-2-yl)methanone] | 1000 to 5000 |
| Cn1ccc(-c2nc(C(F)F)c(C(=O)N3CCc4[nH]cnc4[C@H]3c3nc4cccc(F)c4o3)o2)n1 [Example 591, (S)-(4-(difluoromethyl)-2-(1-methyl-1H-pyrazol-3-yl)oxazol-5-yl)(4-(7-fluorobenzo[d]oxazol-2-yl)-6,7-dihydro-1H-imidazo[4,5-c]pyridin-5(4H)-yl)methanone] | ≤ 500 |
| O=C(c1ocnc1C(F)(F)F)N1CCc2[nH]cnc2[C@@H]1c1nc2cccc(F)c2o1 [Example 172, (R)-(4-(7-fluorobenzo[d]oxazol-2-yl)-6,7-dihydro-1H-imidazo[4,5-c]pyridin-5(4H)-yl)(4-(trifluoromethyl)oxazol-5-yl)methanone] | ≤ 500 |
| Cc1cnn(C)c1-c1nnc(C(=O)N2CCc3[nH]cnc3[C@H]2c2nc3cc(F)ccc3o2)o1 [Example 119, (S)-(5-(1,4-dimethyl-1H-pyrazol-5-yl)-1,3,4-oxadiazol-2-yl)(4-(5-fluorobenzo[d]oxazol-2-yl)-6,7-dihydro-1H-imidazo[4,5-c]pyridin-5(4H)-yl)methanone] | 500 to 1000 |
| Cn1cc(-c2ccc3c(C(=O)N4CCc5[nH]cnc5[C@@H]4c4nc5cc(F)ccc5o4)cnn3c2)cn1 [Example 72, (R)-(4-(5-fluorobenzo[d]oxazol-2-yl)-6,7-dihydro-1H-imidazo[4,5-c]pyridin-5(4H)-yl)(6-(1-methyl-1H-pyrazol-4-yl)pyrazolo[1,5-a]pyridin-3-yl)methanone] | ≥ 5000 |

Same assay, conditions: A375 cells expressing R408W PAH; 24 hrs with compound, then 20 μM sepiapterin and 800 μM 13C9,15N-Phenylalanine for 4 hours; 13C-Tyrosine by LC-MS; average where tested multiple times

| AC50 [nM] | SMILES |
| --- | --- |
| ≥ 5000 | CN1C2CCC1CN(c1ccc3c(C(=O)N4CCc5[nH]cnc5C4c4nc5cc(F)ccc5o4)cnn3c1)C2 (single isomer, unassigned) |
| 1000 to 5000 | Cc1nnc(C(=O)N2CCc3[nH]cnc3C2c2nc3c(F)ccc(F)c3o2)o1 (stereo not drawn) |
| 1000 to 5000 | Cc1ccc2nc(C3c4nc[nH]c4CCN3C(=O)c3cnn4cc(CCN(C)C)ccc34)oc2c1 (stereo not drawn) |
| ≥ 5000 | O=C(c1cnc(N2CCC(F)CC2)o1)N1CCc2[nH]cnc2C1c1nc2cc(F)ccc2o1 (stereo not drawn) |
| 1000 to 5000 | CC(C)(O)c1ncc(C(=O)N2CCc3[nH]cnc3C2c2nc3cc(F)ccc3o2)s1 (stereo not drawn) |
